Test results published in patent publication US10406169B2, “Methods of monitoring estriol therapy” (The Regents of the University of California, priority 2015, dated 2019).

Assay: Safety and adverse events
Type: in vivo, human
Text: On study blood tests included complete blood count (CBC) with differential and platelets; chemistry panel including sodium, potassium, creatinine, BUN, glucose, total protein, albumin, bilirubin (total), alkaline phosphatase, AST (SGOT), and ALT (SGPT), and lipid profile (HDL, LDL and triglycerides, cholesterol. […] Adverse event analysis was based on the percentage of patients who discontinued the study and the percentage of patients who discontinued the study possibly due to adverse events.

## glatiramer acetate [Placebo + GA]
Breast
  Fibrocystic disease on clinical exam - %: (5) %
  Fibrocystic disease on clinical exam - no.: 4
  Mammogram with malignancy - no.: 0
Completed
  Breast adverse events, # of patients: [5]
  Breast adverse events, number of events: 5
  Cardiovascular adverse events, # of patients: [8]
  Cardiovascular adverse events, number of events: 8
  Extremity adverse events, # of patients: [21]
  Extremity adverse events, number of events: 43
  GA related? adverse events, # of patients: [11]
  GA related? adverse events, number of events: 22
  GI adverse events, # of patients: [15]
  GI adverse events, number of events: 19
  GU adverse events, # of patients: [10]
  GU adverse events, number of events: 17
  GYN adverse events, # of patients: [15]
  GYN adverse events, number of events: 18
  General adverse events, # of patients: [26]
  General adverse events, number of events: 48
  Head/Neck adverse events, # of patients: [26]
  Head/Neck adverse events, number of events: 42
  Lymph adverse events, # of patients: [1]
  Lymph adverse events, number of events: 1
  MRI related adverse events, # of patients: [2]
  MRI related adverse events, number of events: 3
  Menses adverse events, # of patients: [10]
  Menses adverse events, number of events: 14
  Mental adverse events, # of patients: [10]
  Mental adverse events, number of events: 14
  Neurology adverse events, # of patients: [9]
  Neurology adverse events, number of events: 13
  Respiratory adverse events, # of patients: [26]
  Respiratory adverse events, number of events: 47
  Skeleton adverse events, # of patients: [1]
  Skeleton adverse events, number of events: 2
  Skin adverse events, # of patients: [10]
  Skin adverse events, number of events: 15
  Total adverse events, # of patients: [53]
  Total adverse events, number of events: 331
Discontinued
  Cancer adverse events, # of patients: [1]
  Cancer adverse events, number of events: 1
  Extremity adverse events, # of patients: [2]
  Extremity adverse events, number of events: 4
  GA related? adverse events, # of patients: [4]
  GA related? adverse events, number of events: 10
  GI adverse events, # of patients: [3]
  GI adverse events, number of events: 3
  GU adverse events, # of patients: [3]
  GU adverse events, number of events: 3
  GYN adverse events, # of patients: [3]
  GYN adverse events, number of events: 3
  General adverse events, # of patients: [6]
  General adverse events, number of events: 9
  Head/Neck adverse events, # of patients: [4]
  Head/Neck adverse events, number of events: 9
  Lymph adverse events, # of patients: [1]
  Lymph adverse events, number of events: 1
  Menses adverse events, # of patients: [2]
  Menses adverse events, number of events: 3
  Mental adverse events, # of patients: [5]
  Mental adverse events, number of events: 5
  Neurology adverse events, # of patients: [1]
  Neurology adverse events, number of events: 1
  Respiratory adverse events, # of patients: [3]
  Respiratory adverse events, number of events: 7
  Skin adverse events, # of patients: [2]
  Skin adverse events, number of events: 2
  Total adverse events, # of patients: [13]
  Total adverse events, number of events: 61
Uterus
  Abnormal proliferation on biopsy - no.: 0
  Endometrial biopsies performed - %: (8) %
  Endometrial biopsies performed - no.: 6
  Endometrial thickness >8 mm (ultrasound) - %: (36) %
  Endometrial thickness >8 mm (ultrasound) - no.: 27
  Fibroids (ultrasound) - %: (11) %
  Fibroids (ultrasound) - no.: 8
In vivo
  Adverse events leading to discontinuation - %: (6%)
  Adverse events leading to discontinuation - no.: 5
  Any adverse event - % of pts: 87%
  Any adverse event - no of pts: 67
  Any adverse event - no. of events: 392
  Arm/leg numbness, tingling - % of pts: 9%
  Arm/leg numbness, tingling - no of pts: 7
  Arm/leg numbness, tingling - no. of events: 10
  Back pain - % of pts: 6%
  Back pain - no of pts: 5
  Back pain - no. of events: 5
  Copaxone injection area abnormalities - % of pts: 18%
  Copaxone injection area abnormalities - no of pts: 14
  Copaxone injection area abnormalities - no. of events: 30
  Depression/anxiety - % of pts: 12%
  Depression/anxiety - no of pts: 9
  Depression/anxiety - no. of events: 10
  Dizziness - % of pts: 9%
  Dizziness - no of pts: 7
  Dizziness - no. of events: 10
  Fatigue - % of pts: 10%
  Fatigue - no of pts: 8
  Fatigue - no. of events: 10
  Gastroenteritis - % of pts: 4%
  Gastroenteritis - no of pts: 3
  Gastroenteritis - no. of events: 4
  Headache - % of pts: 14%
  Headache - no of pts: 11
  Headache - no. of events: 12
  Heart palpitation - % of pts: 5%
  Heart palpitation - no of pts: 4
  Heart palpitation - no. of events: 4
  Insomnia - % of pts: 5%
  Insomnia - no of pts: 4
  Insomnia - no. of events: 4
  Irregular menses/spotting - % of pts: 4%
  Irregular menses/spotting - no of pts: 3
  Irregular menses/spotting - no. of events: 4
  Menstrual cramp - % of pts: 5%
  Menstrual cramp - no of pts: 4
  Menstrual cramp - no. of events: 5
  Menstrual flow amount increased - % of pts: 8%
  Menstrual flow amount increased - no of pts: 6
  Menstrual flow amount increased - no. of events: 8
  Nausea/vomiting - % of pts: 6%
  Nausea/vomiting - no of pts: 5
  Nausea/vomiting - no. of events: 5
  Severe adverse events - % of pts: 13%
  Severe adverse events - no of pts: 10
  Severe adverse events - no. of events: 12
  Shingles - % of pts: 5%
  Shingles - no of pts: 4
  Shingles - no. of events: 4
  Sinusitis - % of pts: 13%
  Sinusitis - no of pts: 10
  Sinusitis - no. of events: 14
  Upper respiratory infection - % of pts: 34%
  Upper respiratory infection - no of pts: 26
  Upper respiratory infection - no. of events: 38
  Urinary tract infection - % of pts: 13%
  Urinary tract infection - no of pts: 10
  Urinary tract infection - no. of events: 16
  Vaginal infection - % of pts: 10%
  Vaginal infection - no of pts: 8
  Vaginal infection - no. of events: 9
  Vision problem (blurry, double) - % of pts: 9%
  Vision problem (blurry, double) - no of pts: 7
  Vision problem (blurry, double) - no. of events: 7
Severe adverse event
  Accidently took other's drug - % of pts: [1, 1%]
  Accidently took other's drug - no of pts: [1, 1%]
  Accidently took other's drug - no. of events: 1
  Acute appendicitis - % of pts: [1, 1%]
  Acute appendicitis - no of pts: [1, 1%]
  Acute appendicitis - no. of events: 1
  B-cell lymphoma - % of pts: [1, 1%]
  B-cell lymphoma - no of pts: [1, 1%]
  B-cell lymphoma - no. of events: 1
  Car accident related body numbness - % of pts: [1, 1%]
  Car accident related body numbness - no of pts: [1, 1%]
  Car accident related body numbness - no. of events: 1
  Heart failure - no. of events: 0
  MS relapse - % of pts: 6%
  MS relapse - no of pts: 5
  MS relapse - no. of events: 6
  Migraine headache related eye pain - no. of events: 0
  Pace maker implantation - no. of events: 0
  Pregnancy termination - no. of events: 0
  Pyelonephritis - no. of events: 0
  Right knee replacement - % of pts: [1, 1%]
  Right knee replacement - no of pts: [1, 1%]
  Right knee replacement - no. of events: 1
  Systolic heart failure - no. of events: 0
  UTI - % of pts: [1, 1%]
  UTI - no of pts: [1, 1%]
  UTI - no. of events: 1
